Data reported in PMC8161026, “Synthesis and Anticancer Activity Evaluation of 5-[2-Chloro-3-(4-nitrophenyl)-2-propenylidene]-4-thiazolidinones” (Molecules, 2021).

Tests used:
MOLT-4 [1] = assay: cells; settings: Homo sapiens, MOLT-4, 48 h; for CC50: read-out: LC50
A498 = assay: NCI DTP 60 cell line screen, SRB
SF-539 = assay: NCI DTP 60 cell line screen, SRB; settings: for GI50 / CC50: Homo sapiens, SF-539, 48 h; for CC50: read-out: LC50; for TGI: SF-539 (CNS Cancer), 48 h, SRB
RPMI-8226 = assay: cells; settings: Homo sapiens, RPMI-8226, 48 h; for CC50: read-out: LC50
T-47D = assay: cells; settings: Homo sapiens, T47D, 48 h; for CC50: read-out: LC50
MALME-3M = assay: NCI DTP 60 cell line screen, SRB; settings: 48 h; for GI50 / CC50: Homo sapiens, Malme-3M; for CC50: read-out: LC50; for TGI: MALME-3M (Melanoma), SRB
MOLT-4 [2] = settings: for TI (Therapeutic Index): GI50 (normal blood lymphocyte)/GI50 (MOLT-4); for TGI: MOLT-4 (Leukemia), 48 h, SRB
HT-29 = assay: NCI DTP 60 cell line screen, SRB; settings: for TGI: HT-29 (Colon Cancer), 48 h, SRB; for GI50 / CC50: Homo sapiens, HT-29, 48 h; for CC50: read-out: LC50
SF-268 = assay: NCI DTP 60 cell line screen, SRB; settings: for GI50 / CC50: Homo sapiens, SF-268, 48 h; for CC50: read-out: LC50; for TGI: SF-268 (CNS Cancer), 48 h, SRB
[3] = system: normal human blood lymphocytes; assay: in vitro
Protocol: (§1) Another part of our study was to determine the influence of compounds 2f, 2i, 2j, and 2h on normal human blood lymphocytes (Figure 5). […] Thus, normal blood lymphocytes are blood cells, as well as cells of leukemia cell lines, therapeutic index (TI) of compounds 2f, 2h, and 2j was calculated as GI50 (normal blood lymphocyte)/GI50 (leukemia cell line) (Table 5).
(§2) Figure 5 Human lymphocyte viability after 48 h of 2f, 2i, 2j, 2h, and Ciminalum drug exposure was estimated by MTT assay.
(§3) The assay was performed by using 3-(4,5-dimethylthiazole-2-yl)- 2,5-diphenyltetrazolium bromide (MTT). Confluent cells, cultured for 24 h with 0.1, 1, 5, 10, 20, 30, and 100 µM concentrations of studied compounds in 24-well plates were washed with PBS. MTT was dissolved in PBS, and 25 µL were added to each well. Plates were incubated for 4 h at 37 °C in 5% CO2 in an incubator. The medium with MTT was removed, and 1 mL of DMSO was added to the attached cells. Furthermore, cells were incubated for 5–10 min in RT and then 10 µl of Sorensen buffer was added to each well. The absorbance of converted dye in living cells was measured at a wavelength of 570 nm. The cell viability of breast cancer cells, gastric cancer cells, and human colon cancer cells cultured in the presence of ligands was calculated as percent of control cells.
(§4) First, 20 mL of venous blood was taken from volunteers (Ethical protocol number 2, 27 January 2019) and collected in the presence of 200 μL of undiluted fresh heparin (1/100). Sterile blood was diluted 2 times with 0.9% NaCl under the sterile conditions. Isolation of lymphocytes was performed in a density gradient of ficol-verografin using the protocol of the manufacturer (Lympoprep, NYCOMED PHARMA AS, Oslo Norway). The resulting lymphocytes were resuspended in the RPMI-1640 medium and cultured for several days (up to 10 days). To separate the lymphocytes from the monocytes, cell suspension was left for 24 h. After 24 h of culture, monocytes were attached, while lymphocytes were transferred to a fresh Falcon tube (15 mL). To stimulate the proliferation of lymphocytes, they were cultured on CD3+ antibody-coated plastic plate in the RPMI-1640 medium supplemented with 20% FBS.

in vitro = settings: human
Protocol: as §1, §2, §3, §4

SR = assay: cells; settings: Homo sapiens, 48 h; for CC50: read-out: LC50
HCT-15 = assay: NCI DTP 60 cell line screen, SRB; settings: for TGI: HCT-15 (Colon Cancer), 48 h, SRB; for GI50 / CC50: Homo sapiens, HCT-15, 48 h; for CC50: read-out: LC50
SK-MEL-2 = assay: cells; settings: Homo sapiens, SK-MEL-2, 48 h; for CC50: read-out: LC50
LOX IMVI [4] = assay: cells; settings: Homo sapiens, 48 h; for CC50: read-out: LC50
PC-3 = PC-3 (Prostate Cancer), 48 h, SRB
NCI-H460 [5] = settings: NCI-H460 (Non-Small Cell Lung Cancer), 48 h, SRB
HOP-62 = assay: cells; settings: Homo sapiens, HOP-62, 48 h; for CC50: read-out: LC50
LOX IMVI [6] = settings: LOX IMVI (Melanoma), 48 h, SRB
NCI-H460 [7] = assay: cells; settings: Homo sapiens, NCI-H460, 48 h; for CC50: read-out: LC50
IGROV1 = assay: NCI DTP 60 cell line screen, SRB; settings: for GI50 / CC50: Homo sapiens, IGROV-1, 48 h; for CC50: read-out: LC50; for TGI: IGROV1 (Ovarian Cancer), 48 h, SRB
NCI/ADR-Res = assay: NCI DTP 60 cell line screen, SRB; settings: 48 h
MDA-MB-435 = assay: NCI DTP 60 cell line screen, SRB

For O=C(O)C(Cc1ccccc1)N1C(=O)/C(=C/C(Cl)=C/c2ccc([N+](=O)[O-])cc2)SC1=S (stereo not shown) [Compound 2j, 2-{5-[(Z,2Z)-2-Chloro-3-(4-nitrophenyl)-2-propenylidene]-4-oxo-2-thioxothiazolidin-3-yl}-3-phenylpropanoic acid], the GI50 (MOLT-4 [1]) was 3.14 µM, the CC50 (MOLT-4 [1]) was greater than 100 µM and the TGI (A498; A498 (Renal Cancer), 48 h, SRB) was 3.24 µM. For the same molecule, the GI50 (A498; Homo sapiens, A498, 48 h) was 1.65 µM, the CC50 (A498; Homo sapiens, A498, 48 h, read-out: LC50) was 6.37 µM and the GI50 (SF-539) was 2.74 µM. The CC50 (SF-539) was greater than 100 µM, the TGI (SF-539) was greater than 100 µM and the GI50 (RPMI-8226) was 3.22 µM. It also gave a CC50 (RPMI-8226) greater than 100 µM, a GI50 (T-47D) of 1.5 µM and a CC50 (T-47D) greater than 100 µM. For the same molecule, the GI50 (MALME-3M) was 2.13 µM, the CC50 (MALME-3M) was greater than 100 µM and the TGI (MALME-3M) was 4.82 µM. The “TI (Therapeutic Index)” value (MOLT-4 [2]) was 15.59, the TGI (MOLT-4 [2]) was greater than 100 µM and the TGI (HT-29) was 8.47 µM. The GI50 (HT-29) was 2.84 µM, the CC50 (HT-29) was greater than 100 µM and the GI50 (SF-268) was 2.21 µM. For the same molecule, the CC50 (SF-268) was greater than 100 µM, the TGI (SF-268) was greater than 100 µM and the “toxicity toward normal human blood lymphocytes” value [3] was “low toxicity”. It also gave a GI50 at 48 h (in vitro) of 49 µM, a GI50 (SR) of 2.45 µM and a CC50 (SR) greater than 100 µM. It also gave a TGI (HCT-15) of 4.58 µM, a GI50 (HCT-15) of 1.92 µM and a CC50 (HCT-15) greater than 100 µM. It also gave a GI50 (SK-MEL-2) of 1.87 µM, a CC50 (SK-MEL-2) greater than 100 µM and a GI50 (LOX IMVI [4]) of 1.64 µM. The CC50 (LOX IMVI [4]) was 6.46 µM, the TGI (PC-3) was 7.98 µM and the TGI (NCI-H460 [5]) was greater than 100 µM. For the same molecule, the GI50 (HOP-62) was 2.31 µM, the CC50 (HOP-62) was greater than 100 µM and the TGI (LOX IMVI [6]) was 3.26 µM. It also gave a GI50 (NCI-H460 [7]) of 2.19 µM, a CC50 (NCI-H460 [7]) greater than 100 µM and a GI50 (IGROV1) of 2.99 µM. For the same molecule, the CC50 (IGROV1) was greater than 100 µM and the TGI (IGROV1) was greater than 100 µM.

In the case of O=C(O)CCN1C(=O)/C(=C/C(Cl)=C/c2ccc([N+](=O)[O-])cc2)SC1=S [Compound 2h, 3-{5-[(Z,2Z)-2-Chloro-3-(4-nitrophenyl)-2-propenylidene]-4-oxo-2-thioxothiazolidin-3-yl}propanoic acid], the GI50 (MOLT-4 [1]) is reported as 0.016 µM, the CC50 (MOLT-4 [1]) is reported as greater than 100 µM and the GI50 (SF-539) is reported as less than 0.01 µM. The CC50 (SF-539) was 25.8 µM, the TGI (SF-539) was 0.267 µM and the GI50 (RPMI-8226) was 0.138 µM. The CC50 (RPMI-8226) was greater than 100 µM, the GI50 (T-47D) was 0.363 µM and the CC50 (T-47D) was greater than 100 µM. For the same molecule, the GI50 (MALME-3M) was 9.7 µM, the CC50 (MALME-3M) was greater than 100 µM and the TGI (MALME-3M) was 61.9 µM. The “TI (Therapeutic Index)” value (MOLT-4 [2]) was 3408.75, the TGI (MOLT-4 [2]) was 19.7 µM and the TGI (HT-29) was 2.77 µM. For the same molecule, the GI50 (HT-29) was 1.25 µM, the CC50 (HT-29) was greater than 100 µM and the GI50 (SF-268) was 2.12 µM. The CC50 (SF-268) was greater than 100 µM, the TGI (SF-268) was 9.74 µM and the “toxicity toward normal human blood lymphocytes” value [3] was “low toxicity”. The GI50 at 48 h (in vitro) was 54.5 µM, the GI50 (NCI/ADR-Res; Homo sapiens, NCI/ADR-RES) was 0.407 µM and the CC50 (NCI/ADR-Res; Homo sapiens, NCI/ADR-RES, read-out: LC50) was 6.43 µM. It also gave a TGI (NCI/ADR-Res; NCI/ADR-Res (Breast Cancer), SRB) of 2.11 µM, a GI50 (SR) of less than 0.01 µM and a CC50 (SR) greater than 100 µM. For the same molecule, the TGI (HCT-15) was 2.96 µM, the GI50 (HCT-15) was 0.23 µM and the CC50 (HCT-15) was greater than 100 µM. For the same molecule, the GI50 (MDA-MB-435; Homo sapiens, MDA-MB-435, 48 h) was 1.25 µM, the CC50 (MDA-MB-435; Homo sapiens, MDA-MB-435, 48 h, read-out: LC50) was 29.3 µM and the TGI (MDA-MB-435; MDA-MB-435 (Breast Cancer), 48 h, SRB) was 4.12 µM. For the same molecule, the GI50 (SK-MEL-2) was 0.802 µM, the CC50 (SK-MEL-2) was 65.1 µM and the GI50 (LOX IMVI [4]) was 0.161 µM. For the same molecule, the CC50 (LOX IMVI [4]) was greater than 100 µM, the TGI (PC-3) was 13.7 µM and the TGI (NCI-H460 [5]) was 3.32 µM. It also gave a GI50 (HOP-62) of 6.54 µM, a CC50 (HOP-62) of 52.8 µM and a TGI (LOX IMVI [6]) of 0.515 µM. It also gave a GI50 (NCI-H460 [7]) of 0.804 µM, a CC50 (NCI-H460 [7]) greater than 100 µM and a GI50 (IGROV1) of 0.794 µM. It also gave a CC50 (IGROV1) of 43.1 µM and a TGI (IGROV1) of 3.68 µM.
